Assay results from US8795633B2, “Multiphoton in vivo flow cytometry method and device” (Purdue Research Foundation, priority 2005, dated 2014).
*1 amine or outer side, *2 acyl side, *3 side chain or, on linkers, in order; H or OH if unused. Where a SMILES comes first, the peptide text is derived from it. Bridges are numbered along the chain shown (N, C = ends). [ ]: non-standard residue; d: D form. The star is where a group is joined. ξ: configuration not given here. X1 = O=C(O)CNC(=O)C(CCCCNC(=S)Nc1ccc(-c2c3ccc(=O)cc-3oc3cc(O)ccc23)c(C(=O)O)c1)N*; X2 = O=C(C1CCN[c+]2c(N[*:1])cc3cc(O)c(O)cc3n21)[*:2]; ξOrn(N(OH)CHO) = NC(CCCN(O)C=O)C(=O)O; Glutaryl = O=C(CCCC(=O)[*:2])[*:1]

Key:
Pseudomonas aeruginosa = experiment: FACS analysis of pyoverdine peptide fluorescein binding and competition; conditions: 0.1 μM conjugate; 100-fold excess free pyoverdine
Experimental: The x-axis indicates fluorescence intensity.
(§1) This procedure applies to Examples 25-27. For cell sorting assays, iron limited conditions were maintained by addition of dipyridyl to the culture (final concentration of […]). Cells were grown to mid-log phase (NB or LB broth), the siderophore conjugates added to 10-20 million CFU of bacterial cells to a final siderophore conjugate concentration of 2-3 uM (total volume=11 mL), and incubated for a period of 30 minutes. Competition was performed by adding a 100-fold excess of desferrioxamine (Yersinia) or pyoverdine PaA (Pseudomonas) to the cells 15 minutes prior to incubation with the siderophore conjugates. Fluorescently activated cell sorting (FACS) was performed on a FACS Caliber (BD Bio systems, Franklin Lakes, N.J.) cell sorter with both the forward scatter and side scatter in the log mode per manufactures guidelines for analyzing bacteria. Bacteria samples were diluted with PBS to achieve 200-400 counts per second.
Cell studies using FACS analysis and Pseudomonas aeruginosa were performed essentially as described under Example 25 (see FIG. 10) to assess binding and competition of this molecule (concentrations ranged from 1 μM to 1 nM).

[1] = molecular target: T1, cell surface folate receptors (Mus musculus, UniProt P35846); experiment: Fluorescence measurement of binding to folate receptor positive M109 cells in culture
T1 construct: cell surface folate receptors on folate receptor positive M109 cells in culture; endogenous in cells; host or cells: M109 cells
Experimental: Texas Red C2-maleimide (Molecular Probes, Eugene, Oreg.) was dissolved in dimethyl sulfoxide (DMSO) (1 mg in 200 μl DMSO). A 1.4 molar equivalent (1 mg) of Folate-Cys was added to the solution and mixed for 4 hours at room temperature. Folate-Cys-Texas Red (Folate-Texas Red) was purified by reverse-phase HPLC on a C18 column at a flow rate of 1 ml/min. The mobile phase, consisting of 10 mM NH4HCO3 buffer, pH 7.0 (eluent A) and acetonitrile (eluent B), was maintained at a 99:1 A:B ratio for the first five minutes and then changed to 70:30 A:B in a linear gradient over the next 30 minutes followed by a 1:99 A:B linear gradient over the last 15 minutes. Folate-Cys-Texas Red eluted as two isomer peaks at 44.5 and 45.8 minutes. The product was confirmed by mass spectroscopy and the biologic activity was confirmed by fluorescence measurement of its binding to cell surface folate receptors on folate receptor positive M109 cells in culture.

Yersinia enterocolitica = experiment: FACS analysis of desferrioxamine fluorescein binding and competition
Experimental: as §1
In this case, fluorescence shift indicates binding of the fluorescein conjugate to the siderophore receptor on the bacterial surface; whereas, adding excess non-labeled ligand (competition) reduces the number of free binding sites prior to conjugate incubation. […] It is interesting to note that this compound was iron unloaded and thus consistent with unloaded siderophore binding reported by Schalk et al., Mol. Microbiol. 39: 351-360 (2001).

T1 sequence (P35846 25-232): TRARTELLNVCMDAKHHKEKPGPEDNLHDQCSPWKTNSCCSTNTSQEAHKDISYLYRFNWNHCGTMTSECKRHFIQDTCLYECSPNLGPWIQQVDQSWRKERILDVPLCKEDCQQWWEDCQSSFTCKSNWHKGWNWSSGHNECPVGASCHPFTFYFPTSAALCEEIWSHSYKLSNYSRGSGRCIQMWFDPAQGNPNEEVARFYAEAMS

With `CC(O)C1NC(=O)C(CCCN(O)C=O)NC(=O)C(NC(=O)C(CCCN(O)C=O)NC(=O)C(CO)NC(=O)C(CCCNC(=N)N)NC(=O)C(CO)NC(=O)C2CCN[c+]3c(NC(=O)CCCC(=O)NC(CCC(=O)O)C(=O)NC(CCCCNC(=S)Nc4ccc(-c5c6ccc(=O)cc-6oc6cc(O)ccc56)c(C(=O)O)c4)C(=O)NCC(=O)O)cc4cc(O)c(O)cc4n32)CCCCNC(=O)C(C(C)O)NC1=O` (stereo not shown) [Pyoverdine Peptide Fluorescein] ({X1-Glu-Glutaryl}-[X2]SRS[ξOrn(N(OH)CHO)]K[ξOrn(N(OH)CHO)]TT; lactam 6-C; configuration not given here) the binding and competition (Pseudomonas aeruginosa) was “competition using free pyoverdine was detected”.

In the case of `Nc1nc2ncc(CNc3ccc(C(=O)NC(CCC(=O)NC(CSC4CC(=O)N(CCNS(=O)(=O)c5ccc(C6=c7cc8c9c(c7Oc7c6cc6c%10c7CCCN%10CCC6)CCC[N+]=9CCC8)c(S(=O)(=O)[O-])c5)C4=O)C(=O)O)C(=O)O)cc3)nc2c(=O)[nH]1` (stereo not shown) [Folate-Cys-Texas Red], the “biologic activity (binding to cell surface folate receptors)” value [1] was “confirmed”.

With `CC(=O)N(O)CCCCCNC(=O)CCC(=O)NCCCCCNC(=O)CCC(=O)N(O)CCCCCNC(=S)Nc1ccc(-c2c3ccc(=O)cc-3oc3cc(O)ccc23)c(C(=O)O)c1` [desferrioxamine fluorescein] the “shift in fluorescence intensity with competition” value (Yersinia enterocolitica; competition with a 100-fold excess of desferrioxamine) was 15% and the “shift in fluorescence intensity” value (Yersinia enterocolitica; non-competed, 2 μM conjugate concentration, non-incubated control 1%) was about 50%.
